For 31 compounds, Ki and IC50 results are on record in ChEMBL document CHEMBL4616621, “Pro-apoptotic carboxamide analogues of natural fislatifolic acid targeting Mcl-1 and Bcl-2” (Bioorg Med Chem Lett, 2020).

Where only a bound is given, the exact number is not on record here.

The target in one assay is Bcl-2-like protein 1 (Homo sapiens, UniProt Q07817). The assay can be described thus: Inhibition of Bcl-xL (unknown origin)/Bak interaction preincubated for 5 mins followed by fluorescein-labeled peptide addition and measured after 10 mins by fluorescein-labeled peptide displacement based fluorescence polarization assay. In general terms: Polarisation of emitted light reports the rotation of a fluorescent probe.

Assay [1] addresses Induced myeloid leukemia cell differentiation protein Mcl-1 (Homo sapiens, UniProt Q07820). Description: Inhibition of Mcl-1 (unknown origin)/Bid interaction preincubated for 5 mins followed by fluorescein-labeled peptide addition and measured after 10 mins by fluorescein-labeled peptide displacement based fluorescence polarization assay.
The target of assay [2] is Apoptosis regulator Bcl-2 (Homo sapiens, UniProt P10415). The assay can be described thus: Inhibition of Bcl2 (unknown origin)/Bim interaction preincubated for 5 mins followed by fluorescein-labeled peptide addition and measured after 10 mins by fluorescein-labeled peptide displacement based fluorescence polarization assay.
Another assay has as its system A549. Description: Antiproliferative activity against human A549 cells assessed as cell death. In kind it is functional, cell-based.
A further assay relates to MCF7. The assay can be described thus: Antiproliferative activity against human MCF7 cells assessed as cell death. In kind it is functional, cell-based.

Chain of Induced myeloid leukemia cell differentiation protein Mcl-1 (Q07820 whole entry): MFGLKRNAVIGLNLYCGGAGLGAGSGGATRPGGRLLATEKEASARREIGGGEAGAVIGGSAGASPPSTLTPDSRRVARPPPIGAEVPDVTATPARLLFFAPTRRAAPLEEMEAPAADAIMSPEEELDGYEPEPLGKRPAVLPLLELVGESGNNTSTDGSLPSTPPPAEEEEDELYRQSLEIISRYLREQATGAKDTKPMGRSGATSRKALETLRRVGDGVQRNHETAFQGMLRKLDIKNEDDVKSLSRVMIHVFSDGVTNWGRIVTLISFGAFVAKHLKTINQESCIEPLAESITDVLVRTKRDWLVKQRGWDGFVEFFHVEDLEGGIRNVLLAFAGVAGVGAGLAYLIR
Chain of Apoptosis regulator Bcl-2 (P10415 whole entry): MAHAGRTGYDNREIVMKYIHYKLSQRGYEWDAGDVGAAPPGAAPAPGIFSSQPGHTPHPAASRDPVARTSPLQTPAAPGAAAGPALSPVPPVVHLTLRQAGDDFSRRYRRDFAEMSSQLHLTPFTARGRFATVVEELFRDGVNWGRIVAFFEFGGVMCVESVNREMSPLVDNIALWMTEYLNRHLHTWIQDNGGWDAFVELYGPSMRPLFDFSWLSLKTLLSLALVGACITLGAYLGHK
Chain of Bcl-2-like protein 1 (Q07817 whole entry): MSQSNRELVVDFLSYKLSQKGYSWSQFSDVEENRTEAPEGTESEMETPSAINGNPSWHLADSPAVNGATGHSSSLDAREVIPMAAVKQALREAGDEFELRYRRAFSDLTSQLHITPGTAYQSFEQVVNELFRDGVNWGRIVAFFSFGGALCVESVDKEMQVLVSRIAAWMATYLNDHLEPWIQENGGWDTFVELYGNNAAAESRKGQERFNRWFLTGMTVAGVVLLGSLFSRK

Broadly, the Ki is the equilibrium dissociation constant of an inhibitor or competing ligand from its target. With `CONC(=O)[C@@H]1CC=C(CCC=C(C)C)C[C@H]1c1ccccc1`, the results for the Ki (on Bcl-2-like protein 1; in assay [1]; in assay [2]) were above 23 µM, above 33 µM and 2.7 µM, respectively.
Turning to `CC(C)=CCCC1=CC[C@@H](C(=O)NCCC(=O)O)[C@H](c2ccccc2)C1`, the Ki is above 23 µM on Bcl-2-like protein 1, above 33 µM in assay [1] and above 23 µM in assay [2].
With `CC(C)=CCCC1=CC[C@@H](C(=O)NO)[C@H](c2ccccc2)C1`, the Ki on Bcl-2-like protein 1 was determined as 17.4 µM; in assay [1], 8.2 µM; in assay [2], 0.7 µM.
As a reminder, the IC50 is the concentration that gives 50% inhibition. Consider `CONC(=O)[C@H]1CC=C(CCC=C(C)C)C[C@@H]1c1ccccc1`, for which the figures for the Ki (on Bcl-2-like protein 1; in assay [1]; in assay [2]) were above 23 µM, 16.6 µM and 2.4 µM, respectively. For the same compound, the IC50 with A549 was determined as 42.2 µM; in the assay on MCF7 it was 45.2 µM.
Consider `CC(C)=CCCC1=CC[C@H](C(=O)Nc2ccc(C(=O)O)cc2)[C@@H](c2ccccc2)C1`, for which the Ki on Bcl-2-like protein 1 is above 23 µM; in assay [1], 8.5 µM; in assay [2], above 23 µM.
For `CC(C)=CCCC1=CC[C@@H](C(=O)Nc2ccc(O)cc2)[C@H](c2ccccc2)C1`, the values for the Ki (on Bcl-2-like protein 1; in assay [1]; in assay [2]) were above 23 µM, above 33 µM and above 23 µM, respectively.
As for `CON(C)C(=O)[C@H]1CC2=C(CCCC2(C)C)C[C@@H]1c1ccccc1`, the Ki at Bcl-2-like protein 1 is above 23 µM; in assay [1], 18.9 µM; in assay [2] it was above 23 µM.
With `CC(C)=CCCC1=CC[C@@H](C(=O)Nc2ccc(C(=O)O)cc2)[C@H](c2ccccc2)C1`, the Ki at Bcl-2-like protein 1 was above 23 µM; in assay [1] it was above 33 µM; in assay [2], 2.2 µM.
With `CC(C)=CCCC1=CC[C@H](C(=O)O)[C@@H](c2ccccc2)C1`, the values for the Ki (on Bcl-2-like protein 1; in assay [1]; in assay [2]) were 5.7 µM, 4 µM and above 23 µM, respectively. In addition, the IC50 in the assay with A549 is 53.7 µM; in the assay with MCF7, 64.3 µM.
`COc1ccc(NC(=O)[C@@H]2CC=C(CCC=C(C)C)C[C@H]2c2ccccc2)cc1`: the Ki was above 23 µM at Bcl-2-like protein 1, above 33 µM in assay [1] and above 23 µM in assay [2].
Consider `CC(C)=CCCC1=CC[C@H](C(N)=O)[C@@H](c2ccccc2)C1`, for which the results for the Ki (at Bcl-2-like protein 1; in assay [1]; in assay [2]) were above 23 µM, above 33 µM and above 23 µM, respectively.
With `COC(=O)CCNC(=O)[C@@H]1CC=C(CCC=C(C)C)C[C@H]1c1ccccc1`, the results for the Ki (on Bcl-2-like protein 1; in assay [1]; in assay [2]) were above 23 µM, 15 µM and above 23 µM, respectively.
Consider `CC(C)=CCCC1=CC[C@H](C(=O)N(C)O)[C@@H](c2ccccc2)C1`, for which the Ki at Bcl-2-like protein 1 is above 23 µM; in assay [1], 7.2 µM; in assay [2] it was 2.1 µM.
The corresponding values for `COc1ccc(NC(=O)[C@H]2CC=C(CCC=C(C)C)C[C@@H]2c2ccccc2)cc1` are above 23 µM, above 33 µM and above 23 µM.
For `CC(C)=CCCC1=CC[C@H](C(=O)NCCC(=O)O)[C@@H](c2ccccc2)C1`, in that order: above 23 µM, above 33 µM and above 23 µM.
In the case of `CC(C)=CCCC1=CC[C@H](C(=O)Nc2ccc(O)cc2)[C@@H](c2ccccc2)C1`, the Ki was above 23 µM on Bcl-2-like protein 1, above 33 µM in assay [1] and above 23 µM in assay [2]. In addition, the IC50 came out at 66.8 µM with A549 and 66.7 µM in the assay with MCF7.
In the case of `CC(C)=CCCC1=CC[C@@H](C(N)=O)[C@H](c2ccccc2)C1`, the Ki on Bcl-2-like protein 1 is above 23 µM; in assay [1] it was above 33 µM; in assay [2], above 23 µM.
As for `COC(=O)c1ccc(NC(=O)[C@H]2CC=C(CCC=C(C)C)C[C@@H]2c2ccccc2)cc1`, the Ki on Bcl-2-like protein 1 is above 23 µM; in assay [1], above 33 µM; in assay [2], above 23 µM.
As for `CC1(C)CCCC2=C1C[C@@H](C(=O)O)[C@H](c1ccccc1)C2`, the Ki is above 23 µM on Bcl-2-like protein 1, above 33 µM in assay [1] and above 23 µM in assay [2].
With `CC(C)=CCCC1=CC[C@@H](C(=O)O)[C@H](c2ccccc2)C1`, the inhibition constant Ki at Bcl-2-like protein 1 was 9.6 µM; in assay [1], 8.6 µM; in assay [2], above 23 µM.
As to `CC(C)=CCCC1=CC[C@@H](C(=O)N(C)O)[C@H](c2ccccc2)C1`, the values for the Ki (on Bcl-2-like protein 1; in assay [1]; in assay [2]) were above 23 µM, 9.2 µM and 2.3 µM, respectively.
The corresponding values for `CC(C)=CCCC1=CC[C@@H](C(=O)N(C)C)[C@H](c2ccccc2)C1` are above 23 µM, above 33 µM and above 23 µM.
For the compound `CON(C)C(=O)[C@H]1CC=C(CCC=C(C)C)C[C@@H]1c1ccccc1`, the inhibition constant (Ki) is above 23 µM on Bcl-2-like protein 1, 0.9 µM in assay [1] and 0.3 µM in assay [2]. For the same compound, the IC50 in the assay with A549 is 31.2 µM; in the assay on MCF7, 42.1 µM.
Consider `CCCCCC[C@H]1C(=O)O[C@H](C)[C@H](NC(=O)c2cccc(NC=O)c2O)C(=O)O[C@@H](C)[C@@H]1OC(=O)CC(C)C` [ANTIMYCIN A], for which the IC50 with A549 stood at 6.5 µM.
`CON(C)C(=O)[C@@H]1CC2=C(CCCC2(C)C)C[C@H]1c1ccccc1`: the figures for the Ki (on Bcl-2-like protein 1; in assay [1]; in assay [2]) were above 23 µM, 15 µM and above 23 µM, respectively.
For the compound `CC1(C)CCCC2=C1C[C@H](C(=O)O)[C@@H](c1ccccc1)C2`, the figures for the Ki (at Bcl-2-like protein 1; in assay [1]; in assay [2]) were above 23 µM, 9 µM and above 23 µM, respectively.
Take `CC(C)=CCCC1=CC[C@H](C(=O)N(C)C)[C@@H](c2ccccc2)C1`: the Ki was 20.1 µM on Bcl-2-like protein 1, 5.4 µM in assay [1] and above 23 µM in assay [2].
For `COC(=O)c1ccc(NC(=O)[C@@H]2CC=C(CCC=C(C)C)C[C@H]2c2ccccc2)cc1`, in that order: above 23 µM, above 33 µM and above 23 µM.
As for `COC(=O)CCNC(=O)[C@H]1CC=C(CCC=C(C)C)C[C@@H]1c1ccccc1`, the Ki on Bcl-2-like protein 1 was above 23 µM; in assay [1] it was 5.5 µM; in assay [2], 3.1 µM. Moreover, the IC50 in the assay with A549 worked out at 87.9 µM; with MCF7, 96.8 µM.
The corresponding values for `CC(C)=CCCC1=CC[C@H](C(=O)NO)[C@@H](c2ccccc2)C1` are 19 µM, 7.3 µM, 0.6 µM, 71.7 µM and 72.3 µM.
With `CON(C)C(=O)[C@@H]1CC=C(CCC=C(C)C)C[C@H]1c1ccccc1`, the results for the Ki (at Bcl-2-like protein 1; in assay [1]; in assay [2]) were above 23 µM, above 33 µM and above 23 µM, respectively.
